Where a SMILES comes first, the peptide text is derived from it. Bridges are numbered along the chain shown (N, C = ends). [ ]: non-standard residue; d: D form. Phe(4-NH2) = Nc1ccc(C[C@H](N)C(=O)O)cc1; Nle = CCCC[C@H](N)C(=O)O
Tests used:
human Kv1.2 = target: T1, human Kv1.2 (Homo sapiens, UniProt P16389); assay: cell-based; conditions: ratio of patch clamp IC50 values
T1 construct: expressed in transfected cells; host or cells: CHO

human Kv1.6 = target: T2, human Kv1.6 (Homo sapiens, UniProt P17658); assay: cell-based; conditions: ratio of patch clamp IC50 values
T2 construct: expressed in transfected cells; host or cells: CHO
T2 sequence (P17658 whole entry): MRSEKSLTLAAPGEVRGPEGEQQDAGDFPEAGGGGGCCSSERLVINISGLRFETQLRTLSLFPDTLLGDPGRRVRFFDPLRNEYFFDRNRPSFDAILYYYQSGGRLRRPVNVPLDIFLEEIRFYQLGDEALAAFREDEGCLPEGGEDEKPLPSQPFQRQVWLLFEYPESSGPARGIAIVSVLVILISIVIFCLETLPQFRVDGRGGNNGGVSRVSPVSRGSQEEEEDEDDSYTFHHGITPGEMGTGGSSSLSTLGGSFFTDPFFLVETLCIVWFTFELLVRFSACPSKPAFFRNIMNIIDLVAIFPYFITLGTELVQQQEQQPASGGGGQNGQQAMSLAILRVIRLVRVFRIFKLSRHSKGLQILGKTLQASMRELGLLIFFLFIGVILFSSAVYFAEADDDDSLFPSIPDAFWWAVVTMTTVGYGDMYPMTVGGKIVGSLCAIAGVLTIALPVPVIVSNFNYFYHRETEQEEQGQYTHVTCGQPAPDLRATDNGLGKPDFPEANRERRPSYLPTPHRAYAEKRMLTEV

Rat whole blood = Rat whole blood (Rattus norvegicus, UniProt P15384); type: cell-based; conditions: IL-17A release, thapsigargin, 24 Hr, at least 2 replicates
Sequence of Rat whole blood (P15384 whole entry): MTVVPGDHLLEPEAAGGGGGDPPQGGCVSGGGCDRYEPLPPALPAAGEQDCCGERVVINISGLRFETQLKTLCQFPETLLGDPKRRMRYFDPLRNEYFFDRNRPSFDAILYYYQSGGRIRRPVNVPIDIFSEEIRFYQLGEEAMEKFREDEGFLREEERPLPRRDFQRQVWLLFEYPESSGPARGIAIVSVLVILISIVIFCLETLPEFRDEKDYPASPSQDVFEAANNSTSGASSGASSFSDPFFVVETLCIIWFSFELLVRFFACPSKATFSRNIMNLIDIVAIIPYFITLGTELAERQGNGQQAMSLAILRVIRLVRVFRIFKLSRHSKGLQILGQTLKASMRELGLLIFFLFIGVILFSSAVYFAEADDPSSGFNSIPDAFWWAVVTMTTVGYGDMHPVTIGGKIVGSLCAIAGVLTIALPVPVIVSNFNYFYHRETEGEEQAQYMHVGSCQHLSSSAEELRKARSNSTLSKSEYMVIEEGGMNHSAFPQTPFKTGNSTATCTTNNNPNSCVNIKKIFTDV

human Kv1.1 = target: T3, human Kv1.1 (Homo sapiens, UniProt Q09470); assay: cell-based; conditions: ratio of patch clamp IC50 values
T3 construct: expressed in transfected cells; host or cells: CHO
T3 sequence (Q09470 whole entry): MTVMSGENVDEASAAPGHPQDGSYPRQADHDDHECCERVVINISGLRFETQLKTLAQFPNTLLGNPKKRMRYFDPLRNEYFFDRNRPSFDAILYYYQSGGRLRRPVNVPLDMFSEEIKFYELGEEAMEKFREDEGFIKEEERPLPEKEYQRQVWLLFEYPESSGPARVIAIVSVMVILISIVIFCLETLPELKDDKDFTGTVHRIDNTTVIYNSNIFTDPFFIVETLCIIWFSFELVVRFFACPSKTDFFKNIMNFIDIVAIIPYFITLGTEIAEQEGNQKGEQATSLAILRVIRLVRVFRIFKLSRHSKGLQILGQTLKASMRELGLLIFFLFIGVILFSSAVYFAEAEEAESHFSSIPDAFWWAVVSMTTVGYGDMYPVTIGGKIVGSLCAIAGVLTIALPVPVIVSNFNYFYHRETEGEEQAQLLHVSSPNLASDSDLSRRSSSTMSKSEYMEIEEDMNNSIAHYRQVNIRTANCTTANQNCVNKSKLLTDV

T1 sequence (P16389 whole entry): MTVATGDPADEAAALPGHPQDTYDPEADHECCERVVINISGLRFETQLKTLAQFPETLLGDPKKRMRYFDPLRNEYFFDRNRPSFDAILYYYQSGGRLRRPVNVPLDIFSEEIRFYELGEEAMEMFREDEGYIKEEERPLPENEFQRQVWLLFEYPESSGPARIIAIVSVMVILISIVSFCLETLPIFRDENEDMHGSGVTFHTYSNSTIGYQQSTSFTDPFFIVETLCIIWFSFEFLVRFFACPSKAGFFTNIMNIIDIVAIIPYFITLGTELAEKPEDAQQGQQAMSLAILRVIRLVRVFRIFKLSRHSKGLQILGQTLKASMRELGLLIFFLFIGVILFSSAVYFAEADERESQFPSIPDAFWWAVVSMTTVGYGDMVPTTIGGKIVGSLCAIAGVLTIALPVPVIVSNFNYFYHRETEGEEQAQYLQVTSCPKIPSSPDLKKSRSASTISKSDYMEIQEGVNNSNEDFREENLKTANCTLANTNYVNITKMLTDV

| Compound | Selectivity ratio Kv1.2/Kv1.3 (human Kv1.2) | Selectivity ratio Kv1.6/Kv1.3 (human Kv1.6) | IC50 (Rat whole blood) [nM] | Selectivity ratio Kv1.1/Kv1.3 (human Kv1.1) |
| --- | --- | --- | --- | --- |
| CC[C@H](C)[C@@H]1NC(=O)[C@H](C)NC(=O)[C@H](CCCCN)NC(=O)[C@H](CC(C)C)NC(=O)[C@@H]2CSSC[C@@H](C(=O)N[C@@H](Cc3ccc(O)cc3)C(=O)N3CCC[C@H]3C(=O)N[C@@H](CCCNC(=N)N)C(N)=O)NC(=O)[C@H](CCCCN)NC(=O)[C@@H]3CSSC[C@H](NC(=O)[C@H](CCC(=O)O)NC(=O)[C@H](C(C)C)NC(=O)[C@H](CO)NC(=O)[C@H](C)NC(=O)[C@H](CO)NC(=O)[C@@H](NC(=O)[C@H](CCCNC(=N)N)NC(=O)[C@H](CCSC)NC(=O)[C@H](CC(=O)O)NC(=O)[C@H](CCSC)NC(=O)[C@@H](N)CC(N)=O)CSSC[C@H](NC(=O)[C@H](CCCCN)NC(=O)CNC(=O)[C@H](Cc4ccccc4)NC(=O)[C@H]([C@@H](C)CC)NC(=O)[C@H](CO)NC(=O)CNC1=O)C(=O)N[C@@H](CCSC)C(=O)N[C@@H](CC(N)=O)C(=O)N[C@@H](CCCCN)C(=O)N[C@@H](CCCCN)C(=O)N3)C(=O)N[C@@H](CCCCN)C(=O)N[C@@H](CCC(=O)O)C(=O)N[C@@H](CCCCN)C(=O)N2 [compound 35] (H-NMDMRCSASVECKEKCLKAIGSIFGKCMNKKCKCYPR-NH2; disulfide 6-27, 12-32, 16-34) | 648 | >10800 | 0.86 | >10800 |
| CCCC[C@H](NC(=O)[C@H](CC(=O)O)NC(=O)[C@H](CCCC)NC(=O)[C@@H](N)CO)C(=O)N[C@@H](CCCNC(=N)N)C(=O)N[C@H]1CSSC[C@@H]2NC(=O)[C@H](CCCCN)NC(=O)CNC(=O)[C@H](Cc3ccccc3)NC(=O)[C@H]([C@@H](C)CC)NC(=O)[C@H](CO)NC(=O)CNC(=O)[C@H]([C@@H](C)CC)NC(=O)[C@H](C)NC(=O)[C@H](CCCCN)NC(=O)[C@H](CC(C)C)NC(=O)[C@@H]3CSSC[C@@H](C(=O)N[C@@H](Cc4ccc(O)cc4)C(=O)N4CCC[C@H]4C(=O)N[C@@H](CCCNC(=N)N)C(N)=O)NC(=O)[C@H](CCCCN)NC(=O)[C@H](CSSC[C@H](NC(=O)[C@H](CCC(=O)O)NC(=O)[C@H](C(C)C)NC(=O)[C@H](CO)NC(=O)[C@H](C)NC(=O)[C@H](CO)NC1=O)C(=O)NCC(=O)N[C@@H](CCC(N)=O)C(=O)N[C@@H](CCCCN)C(=O)N3)NC(=O)[C@H](CCCCN)NC(=O)[C@H](CCCCN)NC(=O)[C@H](CC(N)=O)NC(=O)[C@H](CCSC)NC2=O [compound 71] (H-S[Nle]D[Nle]RCSASVECGQKCLKAIGSIFGKCMNKKCKCYPR-NH2; disulfide 6-27, 12-32, 16-34) | 3438 | >27700 | 0.3 | >27700 |
| CCCC[C@@H]1NC(=O)[C@@H]2CSSC[C@H](N)C(=O)N[C@@H](CO)C(=O)N[C@@H](C)C(=O)N[C@@H](CO)C(=O)N[C@@H](C(C)C)C(=O)N[C@@H](CCC(=O)O)C(=O)N[C@H]3CSSC[C@H](NC(=O)[C@H](CCCCN)NC(=O)[C@H](CCCCN)NC(=O)[C@H](CC(N)=O)NC1=O)C(=O)N[C@@H](CCCCN)C(=O)N[C@H](C(=O)N[C@@H](Cc1ccc(O)cc1)C(=O)N1CCC[C@H]1C(=O)N[C@@H](CCCNC(=N)N)C(N)=O)CSSC[C@H](NC(=O)[C@H](CCCCN)NC(=O)[C@H](CCC(N)=O)NC(=O)[C@H](CCCCN)NC3=O)C(=O)N[C@@H](CC(C)C)C(=O)N[C@@H](CCCCN)C(=O)N[C@@H](C)C(=O)N[C@@H]([C@@H](C)CC)C(=O)NCC(=O)N[C@@H](CO)C(=O)N[C@@H]([C@@H](C)CC)C(=O)N[C@@H](Cc1ccccc1)C(=O)NCC(=O)N[C@@H](CCCCN)C(=O)N2 [compound 98] (H-CSASVECKQKCLKAIGSIFGKC[Nle]NKKCKCYPR-NH2; disulfide 1-22, 7-27, 11-29) | >7000 | >7000 | 1.6 | >7000 |
| CCCC[C@@H]1NC(=O)[C@@H]2CSSC[C@H](NC(=O)[C@H](CCCNC(=N)N)NC(=O)[C@H](CCCC)NC(=O)[C@H](CC(=O)O)NC(=O)[C@H](CCCC)NC(=O)[C@@H](N)CC(N)=O)C(=O)N[C@@H](CO)C(=O)N[C@@H](Cc3c[nH]cn3)C(=O)N[C@@H](CO)C(=O)N[C@@H](C(C)C)C(=O)N[C@@H](CCC(=O)O)C(=O)N[C@H]3CSSC[C@H](NC(=O)[C@H](CCCCN)NC(=O)[C@H](CCCCN)NC(=O)[C@H](CC(N)=O)NC1=O)C(=O)N[C@@H](CCCCN)C(=O)N[C@H](C(=O)N[C@@H](Cc1ccc(O)cc1)C(=O)N1CCC[C@H]1C(=O)N[C@@H](CCCNC(=N)N)C(N)=O)CSSC[C@H](NC(=O)[C@H](CCCCN)NC(=O)[C@H](CCC(N)=O)NC(=O)[C@H](CCCCN)NC3=O)C(=O)N[C@@H](CC(C)C)C(=O)N[C@@H](CCCCN)C(=O)N[C@@H](C)C(=O)N[C@@H]([C@@H](C)CC)C(=O)NCC(=O)N[C@@H](CO)C(=O)N[C@@H]([C@@H](C)CC)C(=O)N[C@@H](Cc1ccccc1)C(=O)NCC(=O)N[C@@H](CCCCN)C(=O)N2 [compound 51] (H-N[Nle]D[Nle]RCSHSVECKQKCLKAIGSIFGKC[Nle]NKKCKCYPR-NH2; disulfide 6-27, 12-32, 16-34) | 1438 | 1134 | 0.83 | >5600 |
| CC[C@H](C)[C@@H]1NC(=O)[C@H](C)NC(=O)[C@H](CCCCN)NC(=O)[C@H](CC(C)C)NC(=O)[C@@H]2CSSC[C@@H](C(=O)N[C@@H](Cc3ccc(O)cc3)C(=O)N3CCC[C@H]3C(=O)N[C@@H](CCCNC(=N)N)C(N)=O)NC(=O)[C@H](CCCCN)NC(=O)[C@@H]3CSSC[C@H](NC(=O)[C@H](CCC(N)=O)NC(=O)[C@H](C(C)C)NC(=O)[C@H](CO)NC(=O)[C@H](C)NC(=O)[C@H](CO)NC(=O)[C@@H](NC(=O)[C@H](CCCNC(=N)N)NC(=O)[C@H](CCSC)NC(=O)[C@H](CC(=O)O)NC(=O)[C@H](CCSC)NC(=O)[C@@H](N)CC(N)=O)CSSC[C@H](NC(=O)[C@H](CCCCN)NC(=O)CNC(=O)[C@H](Cc4ccccc4)NC(=O)[C@H]([C@@H](C)CC)NC(=O)[C@H](CO)NC(=O)CNC1=O)C(=O)N[C@@H](CCSC)C(=O)N[C@@H](CC(N)=O)C(=O)N[C@@H](CCCCN)C(=O)N[C@@H](CCCCN)C(=O)N3)C(=O)N[C@@H](CCCCN)C(=O)N[C@@H](CCC(N)=O)C(=O)N[C@@H](CCCCN)C(=O)N2 [compound 32] (H-NMDMRCSASVQCKQKCLKAIGSIFGKCMNKKCKCYPR-NH2; disulfide 6-27, 12-32, 16-34) | 83 | 1272 | 0.53 | >15200 |
| CC[C@H](C)[C@@H]1NC(=O)[C@H](C)NC(=O)[C@H](CCCCN)NC(=O)[C@H](CC(C)C)NC(=O)[C@@H]2CSSC[C@@H](C(=O)N[C@@H](Cc3ccc(O)cc3)C(=O)N3CCC[C@H]3C(=O)N[C@@H](CCCNC(=N)N)C(N)=O)NC(=O)[C@H](CCCCN)NC(=O)[C@@H]3CSSC[C@H](NC(=O)[C@H](CCC(=O)O)NC(=O)[C@H](C(C)C)NC(=O)[C@H](CO)NC(=O)[C@H](C)NC(=O)[C@H](CO)NC(=O)[C@@H](NC(=O)[C@H](CCCNC(=N)N)NC(=O)[C@H](CCSC)NC(=O)[C@H](CC(=O)O)NC(=O)[C@H](CCSC)NC(=O)[C@@H](N)CC(N)=O)CSSC[C@H](NC(=O)[C@H](CCCCN)NC(=O)CNC(=O)[C@H](Cc4ccccc4)NC(=O)[C@H]([C@@H](C)CC)NC(=O)[C@H](CO)NC(=O)[C@H](CCCNC(=N)N)NC1=O)C(=O)N[C@@H](CCSC)C(=O)N[C@@H](CC(N)=O)C(=O)N[C@@H](CCCCN)C(=O)N[C@@H](CCCCN)C(=O)N3)C(=O)N[C@@H](CCCCN)C(=O)N[C@@H](CCC(N)=O)C(=O)N[C@@H](CCCCN)C(=O)N2 [compound 26] (H-NMDMRCSASVECKQKCLKAIRSIFGKCMNKKCKCYPR-NH2; disulfide 6-27, 12-32, 16-34) | 259 | 2851 | 0.82 | >13700 |
| CCCC[C@H](NC(=O)[C@H](CC(=O)O)NC(=O)[C@H](CCCC)NC(=O)[C@@H](N)CO)C(=O)N[C@@H](CCCNC(=N)N)C(=O)N[C@H]1CSSC[C@@H]2NC(=O)[C@H](CCCCN)NC(=O)CNC(=O)[C@H](Cc3ccccc3)NC(=O)[C@H]([C@@H](C)CC)NC(=O)[C@H](CO)NC(=O)CNC(=O)[C@H]([C@@H](C)CC)NC(=O)[C@H](C)NC(=O)[C@H](CCCCN)NC(=O)[C@H](CC(C)C)NC(=O)[C@@H]3CSSC[C@@H](C(=O)N[C@@H](Cc4ccc(N)cc4)C(=O)N4CCC[C@H]4C(=O)N[C@@H](CCCNC(=N)N)C(N)=O)NC(=O)[C@H](CCCCN)NC(=O)[C@H](CSSC[C@H](NC(=O)[C@H](CCC(=O)O)NC(=O)[C@H](C(C)C)NC(=O)[C@H](CO)NC(=O)[C@H](C)NC(=O)[C@H](CO)NC1=O)C(=O)N[C@@H](CCCCN)C(=O)N[C@@H](CCC(N)=O)C(=O)N[C@@H](CCCCN)C(=O)N3)NC(=O)[C@H](CCCCN)NC(=O)[C@H](CCCCN)NC(=O)[C@H](CC(N)=O)NC(=O)[C@H](CCSC)NC2=O [compound 70] (H-S[Nle]D[Nle]RCSASVECKQKCLKAIGSIFGKCMNKKCKC[Phe(4-NH2)]PR-NH2; disulfide 6-27, 12-32, 16-34) | 1720 | >12200 | 0.79 | >12200 |
